Reference: patent US4591573A (priority 1983, dated 1986)
Structures can show the parent of a compound that is named as a salt.

Key:
[1] = tested on: antibody to L-hyoscyamine (antiserum); format: binding, New Zealand white rabbit
[2] = tested on: antibody of Virtanen radioimmunoassay; conditions: cited from earlier work
[3] = tested on: antibody of Wurzeburger radioimmunoassay; conditions: cited from earlier work
spinal cord = conditions: dog, in vivo; cited from earlier work
mice = conditions: mouse, in vivo; cited from earlier work
patients = conditions: human, in vivo; cited from earlier work
[4] = in vivo; cited from earlier work
[5] = tested on: peripheral parasympathetic nervous system; conditions: in vivo; cited from earlier work
children (flush) = conditions: in vivo, po; cited from earlier work
frogs = conditions: in vivo; cited from earlier work
[6] = in vivo; cited from earlier work; remark: listed apart in the source
human eyes = conditions: in vivo; cited from earlier work

CN1[C@@H]2CC[C@H]1C[C@@H](OC(=O)C(O)c1ccccc1)C2 (mixture of isomers) [Homatropine, dl-homatropine-HBr]
recognition by / cross-reaction with the antibody [1]: recognized by the antibody

O=C(O)C(CO)c1ccccc1 (racemic) [Tropic Acid, dl-tropic acid]
% Cross-reactivity [1]: 0% | recognition by / cross-reaction with the antibody [1]: did not cross-react with the antibody

CN1[C@@H]2CC[C@H]1C[C@@H](OC(=O)C(CO)c1ccccc1)C2 (mixture of isomers) [atropine, D,L-hyoscyamine]
% Cross-reactivity [1]: 30% | Specificity (cross-reactivity), Verma [1]: 37% | cross reaction / cross-reactivity with antibody of the invention [1]: about 37% | recognition by / cross-reaction with the antibody [1]: recognized by the antibody | Specificity (cross-reactivity), Virtanen [2]: 100% | Specificity (percentage of cross reactivity), Wurzeburger [3]: 100% | effect on excitability of the spinal cord (spinal cord): increase the excitability of the spinal cord | narcotization (mice): became narcotized | complications (patients): tachycardia, lethal arrhythmias and/or extension of the myocardial infarction | cycloplegic effect [4]: exert a cycloplegic effect | effect on thermoregulation [4]: hinders thermoregulation

CN1[C@@H]2CC[C@H]1C[C@@H](OC(=O)[C@@H](CO)c1ccccc1)C2 [D-hyoscyamine]
cross reaction / cross-reactivity with antibody of the invention [1]: about 37% | peripheral activity [5]: peripherally inactive | quantity required for flush, as multiple (children (flush)): 20-40 times | effect on spinal cord (frogs): an excitant to the spinal cord | rate of destruction compared with L-form [6]: destroyed more slowly than the L-form

CN1[C@@H]2CC[C@H]1C[C@@H](OC(=O)[C@H](CO)c1ccccc1)C2 [L-hyoscyamine sulphate]
action on human eyes (human eyes): 0.25% solution, can replace a 1% solution of atropine sulphate

CN1[C@@H]2CC[C@H]1C[C@@H](OC(=O)[C@H](CO)c1ccccc1)C2 [L-hyoscyamine]
% Cross-reactivity [1]: 100% | Specificity (cross-reactivity), Verma [1]: 100% | Specificity (cross-reactivity), Virtanen [2]: 100% | Specificity (percentage of cross reactivity), Wurzeburger [3]: 2.4% | peripheral activity [5]: the most potent parasympathetic antispasmodic known | quantity needed for flush (children (flush)): Less quantities of L-hyoscyamine were needed than atropine | effect on excitability of the spinal cord (spinal cord): no effect | narcotization (mice): not affected

CN1[C@@H]2C[C@@H](OC(=O)[C@H](CO)c3ccccc3)C[C@H]1[C@@H]1O[C@@H]12 [Scopolamine, 1-scopolamine-HCl]
% Cross-reactivity [1]: 0%

CN1[C@@H]2CC[C@H]1C[C@@H](O)C2 [Tropine, tropine]
% Cross-reactivity [1]: 0% | recognition by / cross-reaction with the antibody [1]: did not cross-react with the antibody

CN1[C@@H]2CC[C@H]1C[C@@H](OC(=O)C(CO)c1ccccc1)C2 (stereo partly drawn) [atropine sulfate]
serum level of 1-hyoscyamine after 3 hours (after 3 hours): approximately 50% | serum level course (in vivo): steady decline curve after 40 minutes
